We go through four compounds from DBAASP.

Holding throughout (assay): ≥ marks a high value that may be exact or a test limit, other limits are often not marked, values filed in µg/mL are converted to µM
Experiment [1] relates to Bacillus subtilis IFO 3134.
For experiment [2], the system named is Pseudomonas aeruginosa IFO 12582.
The test system of experiment [3] is Staphylococcus aureus IFO 12732.
Experiment [4] deals with Escherichia coli IFO 12734.
Experiment [5] concerns Xanthomonas arboricola pv. pruni CFBP 5563.
In experiment [6] the test system is Staphylococcus aureus 274/08.
Experiment [7] deals with Escherichia coli ATCC 25726.
Experiment [8] relates to Acinetobacter baumannii NM109.
Experiment [9] concerns Staphylococcus aureus S908.
Experiment [10] relates to Pseudomonas aeruginosa ATCC 27853.
The subject of experiment [11] is Staphylococcus epidermidis T37/8.
The subject of experiment [12] is Pseudomonas syringae pv. syringae EPS 94.
Experiment [13] concerns Candida albicans ATCC 90028.
Experiment [14] concerns Acinetobacter baumannii NM35.
Experiment [15] has as its system Staphylococcus epidermidis T6/19.
Experiment [16] has as its system Acinetobacter baumannii NM124.
The subject of experiment [17] is Staphylococcus aureus T4/6.
Experiment [18] has as its system Stenotrophomonas maltophilia U8908.
The test system of experiment [19] is Acinetobacter baumannii NM75.
The test system of experiment [20] is Enterococcus faecalis ATCC 29212.
Experiment [21] deals with Klebsiella pneumoniae ATCC 700603.
The test system of experiment [22] is Stenotrophomonas maltophilia B32/4.
In experiment [23] the test system is Pseudomonas syringae pv. actinidiae Psa3700.1.1.
The subject of experiment [24] is Staphylococcus epidermidis RP62A.
Experiment [25] has as its system Xanthomonas fragariae Xf349-9A.
Experiment [26] has as its system Xanthomonas campestris pv. Vesicatoria 2133-2.
The subject of experiment [27] is Staphylococcus aureus ATCC 25923.
Experiment [28] relates to Staphylococcus aureus 127/08.
The test system of experiment [29] is Stenotrophomonas maltophilia B5/5.
Experiment [30] deals with Staphylococcus epidermidis RP62A/1.
Experiment [31] deals with Stenotrophomonas maltophilia B6/2.
Experiment [32] relates to Staphylococcus aureus 145/08.
Experiment [33] deals with Erwinia amylovora PMV 6076.
Experiment [34] concerns Acinetobacter baumannii NM8.
In experiment [35] the test system is Staphylococcus aureus V4180.
The subject of experiment [36] is Stenotrophomonas maltophilia B32/1.
In experiment [37] the test system is Bacillus subtilis PCI 219.
Experiment [38] has as its system Escherichia coli NIHJ JC-2.
The test system of experiment [39] is Staphylococcus aureus FDA 209P.
Experiment [40] has as its system Pseudomonas aeruginosa U-31.
For a further experiment, the system named is Escherichia coli W160-37.
A further experiment deals with Staphylococcus aureus.

≈ marks a conversion by molar mass, not a printed value.

As for `CC[C@H](C)[C@H](NC(=O)[C@H](C)NC(=O)[C@@H]1CCCN1C(=O)[C@@H](NC(=O)[C@@H](NC(=O)[C@H](Cc1cnc[nH]1)NC(=O)[C@H](C)NC(=O)[C@H](C)NC(=O)[C@@H](NC(=O)[C@H](CCCCN)NC(=O)[C@H](C)NC(=O)[C@H](CC(C)C)NC(=O)[C@@H](NC(=O)CNC(=O)[C@H](Cc1ccccc1)NC(=O)[C@H](C)N)C(C)C)C(C)C)C(C)C)C(C)C)C(=O)N[C@@H](C)C(=O)N[C@@H](CCC(=O)O)C(=O)N[C@@H](Cc1cnc[nH]1)C(=O)N[C@@H](Cc1ccccc1)C(N)=O` [AFGVLAKVAAHVVPAIAEHF], the MIC in experiment [1], in [2], in experiment [3] and in experiment [4] was not below 64 µM in each case.
For the compound `CC[C@H](C)[C@H](NC(=O)[C@H](C)NC(=O)[C@H](CCCCN)NC(=O)CNC(=O)[C@@H](NC(=O)[C@H](Cc1cnc[nH]1)NC(=O)CNC(=O)[C@H](CC(C)C)NC(=O)[C@H](CC(C)C)NC(=O)[C@@H](NC(=O)CNC(=O)[C@@H](NC(=O)[C@H](CC(C)C)NC(=O)CN)C(C)C)[C@@H](C)O)[C@@H](C)CC)C(=O)N[C@@H](CC(C)C)C(=O)N[C@@H](CO)C(N)=O` [GLVGTLLGHIGKAILS], the MIC (usually the smallest concentration in the dilution series that meets the test's criterion for growth inhibition) in experiment [5] was 8.8 µM (≈ 13.6 µg/mL); in experiment [6] it was 16 µM (≈ 24.8 µg/mL); in [7] it was not below 125 µM; in experiment [8], not below 125 µM; in [9], 16 µM (≈ 24.8 µg/mL); in [10], 250 µM (≈ 387 µg/mL). Moreover, the MIC was 16 µM (≈ 24.8 µg/mL) in [11]; not below 50 µM in experiment [12]; not below 62.5 µM in experiment [13]; not below 125 µM in experiment [14]; 8 µM (≈ 12.4 µg/mL) in experiment [15]; not below 125 µM in [16]. Also, the MIC in experiment [17] was 16 µM (≈ 24.8 µg/mL); in [18], not below 62.5 µM; in experiment [19] it was not below 62.5 µM; in experiment [20] it was 62.5 µM (≈ 96.7 µg/mL); in experiment [21] it was 250 µM (≈ 387 µg/mL); in experiment [22], not below 62.5 µM. Further, the MIC in [23] is not below 50 µM; in experiment [24], 16 µM (≈ 24.8 µg/mL); in experiment [25], not below 35.4 µM; in experiment [26], 8.8 µM (≈ 13.6 µg/mL); in experiment [27] it was 16 µM (≈ 24.8 µg/mL); in experiment [28] it was 8 µM (≈ 12.4 µg/mL). Also, the MIC was not below 62.5 µM in experiment [29]; 8 µM (≈ 12.4 µg/mL) in experiment [30]; 31.3 µM (≈ 48.4 µg/mL) in [31]; 16 µM (≈ 24.8 µg/mL) in experiment [32]; not below 35.4 µM in experiment [33]; not below 125 µM in experiment [34]. Besides, the MIC in [35] was 16 µM (≈ 24.8 µg/mL); in experiment [36] it was not below 62.5 µM.
As for `CC(C)C[C@H](NC(=O)[C@H](CCCCN)NC(=O)[C@H](CCCCN)NC(=O)[C@H](CC(C)C)NC(=O)[C@H](CC(C)C)NC(=O)[C@H](CCCCN)NC(=O)[C@H](CCCCN)NC(=O)[C@H](Cc1c[nH]c2ccccc12)NC(=O)[C@H](CC(C)C)NC(=O)[C@H](CCCCN)NC(=O)[C@H](CC(C)C)NC(=O)[C@H](CC(C)C)NC(=O)[C@H](CCCCN)NC(=O)[C@H](CCCCN)NC(=O)[C@H](CC(C)C)NC(=O)[C@H](CC(C)C)NC(=O)[C@@H](N)CCCCN)C(=O)N[C@@H](CCCCN)C(=O)O` [KLLKKLLKLWKKLLKKLK], the MIC in [37], in experiment [38], in [39] and in [40] was not below 44.2 µM in each case.
As for `CC[C@H](C)[C@H](NC(=O)[C@H](Cc1c[nH]c2ccccc12)NC(=O)[C@H](CCCCN)NC(=O)[C@H](CO)NC(=O)[C@H](CC(C)C)NC(=O)[C@H](Cc1ccccc1)NC(=O)[C@@H](NC(=O)[C@H](CCCCN)NC(=O)[C@H](CC(C)C)NC(=O)[C@H](CCCCN)NC(=O)[C@@H]1CCCN1)[C@@H](C)O)C(=O)NCC(=O)O` [PKLKTFLSKWIG], the figures for the MIC against Escherichia coli W160-37 and with Staphylococcus aureus were not below 107 µM and 107 µM (≈ 152 µg/mL), respectively.
